In brackets after ≈: the same amount, converted by molar mass.
Experiments:
Type in all cases: functional
Clostridioides difficile [1] = assay: Antibacterial activity against metronidazole-resistant Clostridium difficile […] clinical isolate
Clostridioides difficile [2] = assay: Antibacterial activity against fidaxomicin-resistant Clostridium difficile RMA23691 clinical isolate
Clostridioides difficile [3] = assay: Antibacterial activity against Clostridium difficile RMA26675
Clostridioides difficile [4] = assay: Antibacterial activity against Clostridium difficile RMA23828
Bacteroides fragilis = assay: Antibacterial activity against Bacteroides fragilis HM-709
Eubacterium sp. = assay: Antibacterial activity against Eubacterium sp. HM-178
Veillonella = assay: Antibacterial activity against Veillonella sp. HM-49
Fusobacterium nucleatum = assay: Antibacterial activity against methicillin/oxacillin/tetracycline-resistant mecA-positive Fusobacterium nucleatum HM-992
[5] = tested on: Limosilactobacillus reuteri; assay: Antibacterial activity against vancomycin-susceptible Lactobacillus reuteri HM-102 clinical isolate
Lactobacillus gasseri = assay: Antibacterial activity against Lactobacillus gasseri HM-644
Bifidobacterium longum = assay: Antibacterial activity against Bifidobacterium longum HM-846
Klebsiella pneumoniae = assay: Antibacterial activity against Klebsiella pneumoniae ATCC 700603
Acinetobacter baumannii = assay: Antibacterial activity against Acinetobacter baumannii ATCC 17961
Pseudomonas aeruginosa = assay: Antibacterial activity against Pseudomonas aeruginosa ATCC 27853
Klebsiella aerogenes = assay: Antibacterial activity against Enterobacter aerogenes ATCC 35029
Escherichia coli = assay: Antibacterial activity against Escherichia coli ATCC 25922
Staphylococcus aureus [6] = assay: Antibacterial activity against Staphylococcus aureus ATCC 29213
Staphylococcus aureus [7] = assay: Antibacterial activity against Staphylococcus aureus NRS100
Staphylococcus aureus [8] = assay: Antibacterial activity against Staphylococcus aureus NRS119
Staphylococcus aureus [9] = assay: Antibacterial activity against vancomycin-resistant Staphylococcus aureus VRS1 clinical isolate
[10] = tested on: Staphylococcus epidermidis; assay: Antibacterial activity against Staphylococcus epidermidis ATCC 35547
[11] = tested on: Staphylococcus haemolyticus; assay: Antibacterial activity against Staphylococcus haemolyticus ATCC 29970
Bacillus cereus = assay: Antibacterial activity against Bacillus cereus ATCC 13061
Enterococcus faecalis = assay: Antibacterial activity against Enterococcus faecalis ATCC 29212
Enterococcus faecium [12] = assay: Antibacterial activity against vancomycin-susceptible Enterococcus faecium 119-39A
Enterococcus faecium [13] = assay: Antibacterial activity against vancomycin-resistant Enterococcus faecium 106 clinical isolate

`CCc1c(Cl)c(O)c(Cl)c(O)c1C(=O)O[C@H]1[C@H](O)[C@H](OC)[C@H](OC/C2=C\C=C\C[C@H](O)/C(C)=C/[C@H](CC)[C@@H](O[C@@H]3OC(C)(C)[C@@H](OC(=O)C(C)C)[C@H](O)[C@@H]3O)/C(C)=C/C(C)=C/C[C@@H]([C@@H](C)O)OC2=O)O[C@@H]1C` [FIDAXOMICIN] was tested, and the MIC (Clostridioides difficile [1]) was 0.125 µg/mL (≈ 0.118 µM), the MIC (Clostridioides difficile [2]) was 4 µg/mL (≈ 3.78 µM) and the MIC (Clostridioides difficile [3]) was 4 µg/mL (≈ 3.78 µM). For the same molecule, the MIC (Clostridioides difficile [4]) was over 8 µg/mL, the MIC (Bacteroides fragilis) was over 32 µg/mL and the MIC (Eubacterium sp.) was 16 µg/mL (≈ 15.1 µM). For the same molecule, the MIC (Veillonella) was 8 µg/mL (≈ 7.56 µM), the MIC (Fusobacterium nucleatum) was under 0.06 µg/mL and the MIC [5] was over 32 µg/mL. For the same molecule, the MIC (Lactobacillus gasseri) was 2 µg/mL (≈ 1.89 µM), the MIC (Bifidobacterium longum) was 0.01 µg/mL (≈ 0.00945 µM) and the MIC (Klebsiella pneumoniae) was over 128 µg/mL. It also gave an MIC (Acinetobacter baumannii) of over 128 µg/mL, an MIC (Pseudomonas aeruginosa) of over 128 µg/mL and an MIC (Klebsiella aerogenes) of over 128 µg/mL. For the same molecule, the MIC (Escherichia coli) was over 128 µg/mL, the MIC (Staphylococcus aureus [6]) was 16 µg/mL (≈ 15.1 µM) and the MIC (Staphylococcus aureus [7]) was 16 µg/mL (≈ 15.1 µM). For the same molecule, the MIC (Staphylococcus aureus [8]) was 2 µg/mL (≈ 1.89 µM), the MIC (Staphylococcus aureus [9]) was 64 µg/mL (≈ 60.5 µM) and the MIC [10] was 4 µg/mL (≈ 3.78 µM). It also gave an MIC [11] of 16 µg/mL (≈ 15.1 µM), an MIC (Bacillus cereus) of 16 µg/mL (≈ 15.1 µM) and an MIC (Enterococcus faecalis) of over 16 µg/mL. It also gave an MIC (Enterococcus faecium [12]) of over 16 µg/mL and an MIC (Enterococcus faecium [13]) of over 16 µg/mL.
